Results: patent US20250002475A1 (EPICS THERAPEUTICS, priority 2023, published 2025)
pIC50: −log10 of the molar value.

Experiments:
Caov-3 cells = experiment: Caov-3 cellular viability assay (ATP-Lite, 72 h); type: cell-based; details: Homo sapiens, ATP-Lite luminescence, % viability relative to DMSO
In short: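 10000 cells/well treated 72 h at 37 °C, 5% CO2, in RPMI-1640 with 10% FBS and 0.1% DMSO final. Viability by ATP-Lite One Step luminescence. Expressed as % of DMSO control, with IC50 from each compound's concentration-response curve.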

[1] = biological target: T1, recombinant METTL3/METTL14 complex (Homo sapiens, UniProt Q86U44); experiment: METTL3/14 Scintillation Proximity Assay (SPA), RNA methyltransferase activity; type: biochemical; details: 5.31 nM METTL3/14 complex, 250 nM RNA substrate, 1 μM 3H-SAM, 90 min; for compounds marked * best of the two separated forms
T1 construct: purchased Active Motif 311970; host or cells: Sf9 cells
T1 sequence (Q86U44 whole entry): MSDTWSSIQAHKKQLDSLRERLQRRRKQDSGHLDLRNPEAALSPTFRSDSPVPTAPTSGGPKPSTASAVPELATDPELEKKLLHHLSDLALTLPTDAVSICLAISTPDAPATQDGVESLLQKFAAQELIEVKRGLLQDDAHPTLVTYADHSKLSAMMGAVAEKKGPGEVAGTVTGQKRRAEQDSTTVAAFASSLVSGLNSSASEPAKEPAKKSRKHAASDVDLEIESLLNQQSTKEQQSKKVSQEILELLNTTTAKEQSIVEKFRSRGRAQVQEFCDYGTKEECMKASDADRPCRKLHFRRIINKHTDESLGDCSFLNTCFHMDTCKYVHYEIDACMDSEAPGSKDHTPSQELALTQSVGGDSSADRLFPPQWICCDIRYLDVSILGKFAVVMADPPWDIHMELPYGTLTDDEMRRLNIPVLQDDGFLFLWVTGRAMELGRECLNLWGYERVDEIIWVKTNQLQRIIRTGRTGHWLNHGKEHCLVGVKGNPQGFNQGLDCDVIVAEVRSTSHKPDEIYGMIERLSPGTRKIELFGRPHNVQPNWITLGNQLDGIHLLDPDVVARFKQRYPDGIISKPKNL
T1 sequence (Q9HCE5 whole entry partner): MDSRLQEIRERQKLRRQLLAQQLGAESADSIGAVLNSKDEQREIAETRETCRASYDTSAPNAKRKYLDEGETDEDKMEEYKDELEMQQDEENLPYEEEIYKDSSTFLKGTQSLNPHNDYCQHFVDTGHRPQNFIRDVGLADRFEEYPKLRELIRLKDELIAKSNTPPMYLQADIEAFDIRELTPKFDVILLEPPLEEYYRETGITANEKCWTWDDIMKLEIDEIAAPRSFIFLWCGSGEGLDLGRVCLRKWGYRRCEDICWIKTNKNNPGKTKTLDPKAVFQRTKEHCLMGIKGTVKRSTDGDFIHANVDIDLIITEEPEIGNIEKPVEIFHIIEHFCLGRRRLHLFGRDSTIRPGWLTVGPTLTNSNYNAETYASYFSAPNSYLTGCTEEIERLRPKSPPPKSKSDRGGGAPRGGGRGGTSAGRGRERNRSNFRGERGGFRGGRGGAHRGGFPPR

Kasumi-1 cells = experiment: Kasumi-1 cellular viability assay (ATP-Lite, 72 h); type: cell-based; details: Homo sapiens, ATP-Lite luminescence, % viability relative to DMSO
In short: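 Kasumi-1 AML cells, 15000/well in RPMI-1640 with 10% FBS, were exposed to compound titrations (0.1% final DMSO) for 72 h at 37 °C, 5% CO2. ATP-Lite One Step luminescence gave % viability versus DMSO control, and IC50 came from the concentration-response.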

SMILES | pIC50 (Caov-3 cells) | pIC50 [1] | pIC50 (Kasumi-1 cells)
CC(c1ccc(N2CCC[C@@H](NCC3CCC3)C2)cn1)n1cc(-c2cncc(N3CC4CC4C3)n2)nn1 (single isomer, unassigned) [Compound 286] | ≥ 6.30 | ≥ 7.30 | ≥ 6.30
CC(c1ccc(N2CCC[C@@H](NCC3CCC3)C2)cn1)n1cc(-c2cncc(-n3cccn3)n2)nn1 (single isomer, unassigned) [Compound 293] | 5.30 to 6.30 | ≥ 7.30 | 5.30 to 6.30
COc1cncc(-c2cn(C(C)c3ccc(N4CCC[C@@H](NCC5CCC5)C4)cc3)cn2)c1 (single isomer, unassigned) [Compound 296] | 5.30 to 6.30 | ≥ 7.30 | 5.30 to 6.30
CC(c1ncc(N2CCC[C@@H](NCC3CCC3)C2)cc1F)n1cc(-c2cncc(N3CCCC3)n2)nn1 (single isomer, unassigned) [Compound 303] | ≥ 6.30 | ≥ 7.30 | ≥ 6.30
CC(c1ccc(N2CCC[C@@H](NCC3CC3)C2)nn1)n1cc(-c2cncc(N3CCCC3)n2)nn1 (single isomer, unassigned) [Compound 309] | ≥ 6.30 | ≥ 7.30 | ≥ 6.30
CC(c1ccc(N2CCC[C@@H](NCC3CC3)C2)nn1)n1cc(-c2cncc(C3CC3)c2)nn1 (single isomer, unassigned) [Compound 317] | ≥ 6.30 | ≥ 7.30 | ≥ 6.30
CC(c1ccc(N2CCC[C@@H](NCC3CC3)C2)nn1)n1cnc(-c2cncc(N3CCCC3)n2)c1 (single isomer, unassigned) [Compound 340] | ≥ 6.30 | ≥ 7.30 | ≥ 6.30
CC(c1ccc(N2CCC[C@@H](NCC3CC3)C2)nn1)n1cnc(-c2cncc(C3CC3)c2)c1 (single isomer, unassigned) [Compound 342] | ≥ 6.30 | ≥ 7.30 | ≥ 6.30
CC(c1ccc(N2CCC[C@@H](NCC3CC3)C2)nn1)c1nnc(-c2cncc(N3CCCC3)n2)o1 (single isomer, unassigned) [Compound 347] | 5.30 to 6.30 | ≥ 7.30 | 5.30 to 6.30
CC(c1ccc(N2CCC[C@@H](NCC3(C)CC3)C2)nn1)n1cnc(-c2cncc(N3CCCC3)n2)c1 (single isomer, unassigned) [Compound 348] | ≥ 6.30 | ≥ 7.30 | ≥ 6.30
CC(c1cnn(-c2cncc(N3CCCC3)n2)c1)c1ccc(N2CCC[C@@H](NCC3CC3)C2)cn1 (single isomer, unassigned) [Compound 354] | ≥ 6.30 | ≥ 7.30 | ≥ 6.30
CC(c1ccc(N2CCC[C@@H](NCC3CC3)C2)cn1)n1cnc(-c2cncc(N3CCCC3)n2)c1 (single isomer, unassigned) [Compound 355] | ≥ 6.30 | ≥ 7.30 | ≥ 6.30
CC(c1cnn(-c2cncc(C3CC3)c2)c1)c1ccc(N2CCC[C@@H](NCC3CC3)C2)cn1 (single isomer, unassigned) [Compound 356] | ≥ 6.30 | ≥ 7.30 | ≥ 6.30
CC(c1ccc(N2CCC[C@@H](NCC3CC3)C2)cn1)n1cc(-c2cncc(C3CC3)c2)nn1 (single isomer, unassigned) [Compound 357] | ≥ 6.30 | ≥ 7.30 | ≥ 6.30
CC(c1ccc(N2CCC[C@@H](NCC3CC3)C2)cn1)c1nnc(-c2cncc(N3CCCC3)n2)s1 (single isomer, unassigned) [Compound 360] | ≥ 6.30 | ≥ 7.30 | ≥ 6.30
CC(c1ccc(N2CCC[C@@H](NCC3(C)CC3)C2)cn1)n1cnc(-c2cncc(N3CCCC3)n2)c1 (single isomer, unassigned) [Compound 365] | ≥ 6.30 | ≥ 7.30 | ≥ 6.30

SMILES | pIC50 (Caov-3 cells) | pIC50 [1] | pIC50 (Kasumi-1 cells)
CC(c1ccc(N2CCC[C@@H](NCC3(C)CC3)C2)cn1)c1nnc(-c2cncc(N3CCCC3)n2)s1 (single isomer, unassigned) [Compound 366] | ≥ 6.30 | ≥ 7.30 | ≥ 6.30
c1cc(C2(n3cc(-c4cncc(N5CCCC5)n4)nn3)COC2)ncc1N1CCCC(NCC2CCC2)C1 (stereo in doubt) [Compound 290, (R)-N-(cyclobutylmethyl)-1-(6-(3-(4-(6-(pyrrolidin-1-yl)pyrazin-2-yl)-1H-1,2,3-triazol-1-yl)oxetan-3-yl)pyridin-3-yl)piperidin-3-amine] | ≥ 6.30 | ≥ 7.30 | ≥ 6.30
COc1cc(-c2cn(Cc3ccc(N4CCC[C@@H](NCC5CCC5)C4)nn3)nn2)c2cn[nH]c2c1 [Compound 001, (R)-N-(cyclobutylmethyl)-1-(6-((4-(6-methoxy-1H-indazol-4-yl)-1H-1,2,3-triazol-1-yl)methyl)pyridazin-3-yl)piperidin-3-amine] | ≥ 6.30 | ≥ 7.30 | 5.30 to 6.30
O=C(NCc1ccc(N2CCC[C@@H](NCC3CCC3)C2)nn1)c1cc(=O)n2ccccc2n1 [Compound 002, (R)-N-((6-(3-((cyclobutylmethyl)amino)piperidin-1-yl)pyridazin-3-yl)methyl)-4-oxo-4H-pyrido[1,2-a]pyrimidine-2-carboxamide] | < 5.30 | ≥ 7.30 | < 5.30
c1cc(-c2cn(Cc3ccc(N4CCC[C@@H](NCC5CCC5)C4)nn3)nn2)c2cncn2c1 [Compound 003, (R)-N-(cyclobutylmethyl)-1-(6-((4-(imidazo[1,5-a]pyridin-8-yl)-1H-1,2,3-triazol-1-yl)methyl)pyridazin-3-yl)piperidin-3-amine] | < 5.30 | ≥ 7.30 | 5.30 to 6.30
COc1cc(-c2cn(Cc3ccc(N4CCCC(N5CCC(C)(C)CC5)C4)nn3)nn2)c2cn[nH]c2c1 (stereo not drawn) [Compound 006, 4-(1-((6-(4,4-dimethyl-[1,3′-bipiperidin]-1′-yl)pyridazin-3-yl)methyl)-1H-1,2,3-triazol-4-yl)-6-methoxy-1H-indazole] | 5.30 to 6.30 | ≥ 7.30 | 5.30 to 6.30
COc1cc(-c2cn(Cc3ccc(N4CCCC(N5CCC(C)CC5)C4)nn3)nn2)c2cn[nH]c2c1 (stereo not drawn) [Compound 007, 6-methoxy-4-(1-((6-(4-methyl-[1,3′-bipiperidin]-1′-yl)pyridazin-3-yl)methyl)-1H-1,2,3-triazol-4-yl)-1H-indazole] | 5.30 to 6.30 | ≥ 7.30 | 5.30 to 6.30
COc1cc(-c2cn(Cc3ccc(N4CCCC(N5CCC6(CCC6)C5)C4)nn3)nn2)c2cn[nH]c2c1 (stereo not drawn) [Compound 008, 4-(1-((6-(3-(6-azaspiro[3.4]octan-6-yl)piperidin-1-yl)pyridazin-3-yl)methyl)-1H-1,2,3-triazol-4-yl)-6-methoxy-1H-indazole] | 5.30 to 6.30 | ≥ 7.30 | < 5.30
c1cc2cc(-c3cn(Cc4ccc(N5CCC[C@@H](NCC6CCC6)C5)nn4)nn3)cnc2[nH]1 [Compound 009, (R)-1-(6-((4-(1H-pyrrolo[2,3-b]pyridin-5-yl)-1H-1,2,3-triazol-1-yl)methyl)pyridazin-3-yl)-N-(cyclobutylmethyl)piperidin-3-amine] | 5.30 to 6.30 | ≥ 7.30 | 5.30 to 6.30
O=C(NCc1ccc(N2CCC[C@@H](NCC3CCC3)C2)nn1)c1cc(=O)n2ccsc2n1 [Compound 010, (R)-N-((6-(3-((cyclobutylmethyl)amino)piperidin-1-yl)pyridazin-3-yl)methyl)-5-oxo-5H-thiazolo[3,2-a]pyrimidine-7-carboxamide] | < 5.30 | 6.30 to 7.30 | < 5.30
O=C(NCc1ccc(N2CCCC(NCC34CC(F)(C3)C4)C2)nn1)c1cc(=O)n2ccccc2n1 (stereo not drawn) [Compound 011, N-((6-(3-(((3-fluorobicyclo[1.1.1]pentan-1-yl)methyl)amino)piperidin-1-yl)pyridazin-3-yl)methyl)-4-oxo-4H-pyrido[1,2-a]pyrimidine-2-carboxamide] | < 5.30 | 6.30 to 7.30 | < 5.30
COc1cncc(-c2cn(Cc3ccc(N4CCC[C@@H](NCC5CCC5)C4)nn3)nn2)c1 [Compound 012, (R)-N-(cyclobutylmethyl)-1-(6-((4-(5-methoxypyridin-3-yl)-1H-1,2,3-triazol-1-yl)methyl)pyridazin-3-yl)piperidin-3-amine] | 5.30 to 6.30 | ≥ 7.30 | 5.30 to 6.30
COc1cc(-c2cn(Cc3ccc(N4CCC[C@@H](NCC5CCC5)C4)nn3)nn2)c2cncn2c1 [Compound 013, (R)-N-(cyclobutylmethyl)-1-(6-((4-(6-methoxyimidazo[1,5-a]pyridin-8-yl)-1H-1,2,3-triazol-1-yl)methyl)pyridazin-3-yl)piperidin-3-amine] | ≥ 6.30 | ≥ 7.30 | 5.30 to 6.30
COc1cc(-c2cn(Cc3ccc(N4CCC[C@@H](NCC5CC5)C4)nn3)nn2)c2cn[nH]c2c1 [Compound 015, (R)-N-(cyclopropylmethyl)-1-(6-((4-(6-methoxy-1H-indazol-4-yl)-1H-1,2,3-triazol-1-yl)methyl)pyridazin-3-yl)piperidin-3-amine] | ≥ 6.30 | ≥ 7.30 | 5.30 to 6.30
O=c1cc(-c2cn(Cc3ccc(N4CCC[C@@H](NCC5CCC5)C4)nn3)nn2)nc2ccccn12 [Compound 017, (R)-2-(1-((6-(3-((cyclobutylmethyl)amino)piperidin-1-yl)pyridazin-3-yl)methyl)-1H-1,2,3-triazol-4-yl)-4H-pyrido[1,2-a]pyrimidin-4-one] | < 5.30 | ≥ 7.30 | < 5.30
